Tests used:
[1] = test system: Brain; assay: Drug level in rat brain laminae 1-4 region; format: ADME, tissue-based; details: in vivo
[2] = test system: Brain; assay: Drug level in rat brain lamina 5 region; format: ADME, tissue-based; details: in vivo
[3] = test system: Laminae; assay: Drug level in rat brain laminae 6a + 6b region; format: ADME, tissue-based; details: in vivo
[4] = test system: Caudate-putamen; assay: Drug level in rat brain caudate-putamen; format: ADME, tissue-based; details: in vivo
[5] = test system: Nucleic Acid; assay: Ratio of drug level in laminae 1-4 region to cerebellum in rat; format: ADME, tissue-based; details: in vivo
[6] = test system: Nucleic Acid; assay: Ratio of drug level in lamina 5 region to cerebellum in rat; format: ADME, tissue-based; details: in vivo
[7] = test system: Nucleic Acid; assay: Ratio of drug level in laminae 6a + 6b region to cerebellum in rat; format: ADME, tissue-based; details: in vitro
[8] = test system: Nucleic Acid; assay: Ratio of drug level in caudate-putamen to cerebellum in rat; format: ADME, tissue-based; details: in vitro
[9] = Metabolic stability in rat plasma assessed as unmetabolized fraction after 5 mins; format: ADME, cell-free; details: read-out: Stability
[10] = Metabolic stability in rat plasma assessed as unmetabolized fraction after 10 mins; format: ADME, cell-free; details: read-out: Stability
[11] = Metabolic stability in rat plasma assessed as unmetabolized fraction after 30 mins; format: ADME, cell-free; details: read-out: Stability
[12] = Metabolic stability in rat plasma assessed as unmetabolized fraction after 60 mins; format: ADME, cell-free; details: read-out: Stability
[13] = target: 5-hydroxytryptamine receptor 2A (Homo sapiens, UniProt P28223); assay: Binding affinity to 5HT2A receptor
[14] = target: 5-hydroxytryptamine receptor 2A (Rattus norvegicus, UniProt P14842); assay: Displacement of [3H]MDL from rat 5HT2A receptor expressed in GF62 cells; format: cell-based
5-hydroxytryptamine receptor 2A (Rattus norvegicus, UniProt P14842), sequence (P14842 whole entry): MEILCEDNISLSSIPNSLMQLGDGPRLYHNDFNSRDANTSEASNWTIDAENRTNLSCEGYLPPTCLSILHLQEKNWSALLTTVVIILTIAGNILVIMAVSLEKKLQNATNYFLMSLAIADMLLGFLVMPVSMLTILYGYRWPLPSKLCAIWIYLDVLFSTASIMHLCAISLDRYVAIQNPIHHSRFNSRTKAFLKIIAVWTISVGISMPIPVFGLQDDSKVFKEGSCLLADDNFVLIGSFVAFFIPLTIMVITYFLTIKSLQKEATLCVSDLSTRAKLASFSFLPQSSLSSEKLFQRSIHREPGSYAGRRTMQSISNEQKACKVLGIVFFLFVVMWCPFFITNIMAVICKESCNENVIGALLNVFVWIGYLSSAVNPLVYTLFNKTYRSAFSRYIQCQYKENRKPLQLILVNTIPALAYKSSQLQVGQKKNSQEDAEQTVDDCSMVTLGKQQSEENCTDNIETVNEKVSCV

5-hydroxytryptamine receptor 2A (Homo sapiens, UniProt P28223), sequence (P28223 whole entry): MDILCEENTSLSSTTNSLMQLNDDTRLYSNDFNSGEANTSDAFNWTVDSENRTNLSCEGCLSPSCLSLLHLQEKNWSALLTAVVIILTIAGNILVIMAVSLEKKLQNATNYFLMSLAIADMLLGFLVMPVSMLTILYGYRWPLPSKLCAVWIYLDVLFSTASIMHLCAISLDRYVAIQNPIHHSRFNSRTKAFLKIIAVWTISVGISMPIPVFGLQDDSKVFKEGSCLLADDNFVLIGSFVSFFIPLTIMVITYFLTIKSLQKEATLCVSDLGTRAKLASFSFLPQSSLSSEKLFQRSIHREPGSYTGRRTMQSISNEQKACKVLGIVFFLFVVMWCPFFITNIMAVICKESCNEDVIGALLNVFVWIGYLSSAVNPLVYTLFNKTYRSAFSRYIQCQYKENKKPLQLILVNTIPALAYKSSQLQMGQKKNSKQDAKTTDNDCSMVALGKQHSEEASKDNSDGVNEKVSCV

Drug uptake [1]	Drug uptake [2]	Drug uptake [3]	Drug uptake [4]	Ratio [5]	Ratio [6]	Ratio [7]	Ratio [8]	remaining at 5 min [9]	remaining at 10 min [10]	remaining at 0.5 h [11]	remaining at 1 h [12]	Ki [13]	Ki [14]	Structure (SMILES)
23.3 pmol/mm3	51.6 pmol/mm3	27.27 pmol/mm3	16.8 pmol/mm3	26.9	59.5	31.4	19.2	43%	32%	16%	7%			COc1c(OCC[18F])cccc1C(O)C1CCN(CCc2ccc(F)cc2)CC1 (stereo not given)
												0.13 nM	0.74 nM	O=C(c1ccc(F)cc1)C1CCN(CCn2c(=S)[nH]c3ccccc3c2=O)CC1 [ALTANSERIN]
													9 nM	COc1c(OCCF)cccc1C(O)C1CCN(CCc2ccc(F)cc2)CC1 (stereo not given)

— ChEMBL document CHEMBL1143186, “Total synthesis and evaluation of [18F]MHMZ” (Bioorg Med Chem Lett, 2008)
